Data reported in PMC11305387, “AlphaFold accelerated discovery of psychotropic agonists targeting the trace amine–associated receptor 1” (Science Advances, 2024).

Assays:
hTAAR1 = molecular target: T1, hTAAR1 (Homo sapiens, UniProt Q96RJ0); test: cAMP accumulation assay (GloSensor-22F); assay type: cell-based
T1 construct: expressed in transfected cells; host or cells: Expi293F
T1 sequence (Q96RJ0 1-339): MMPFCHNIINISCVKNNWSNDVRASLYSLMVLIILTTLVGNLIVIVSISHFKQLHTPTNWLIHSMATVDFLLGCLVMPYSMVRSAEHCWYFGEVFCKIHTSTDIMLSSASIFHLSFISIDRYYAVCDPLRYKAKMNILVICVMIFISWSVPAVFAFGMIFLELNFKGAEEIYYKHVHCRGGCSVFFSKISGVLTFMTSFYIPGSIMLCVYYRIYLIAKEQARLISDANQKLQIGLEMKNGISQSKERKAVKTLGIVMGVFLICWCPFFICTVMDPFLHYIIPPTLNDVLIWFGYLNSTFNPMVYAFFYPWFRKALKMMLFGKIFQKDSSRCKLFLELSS
Protocol: cAMP accumulation was assessed using a previously described system with some modifications ([45]). hTAAR1 and GloSensor-22F were transected with a 1:1 gene dose (1 μg/ml) in Expi293F cells for 48 hours. Cells were then resuspended in assay buffer [Hanks’ balanced salt solution (HBSS), 10 mM Hepes, 2 mM […] (Promega), and 300 μM 3-isobutyl-1-methylxanthine (Sigma-Aldrich)] and seeded with 25,000 cells per well to a white 384-well plate (CulturPlate, PerkinElmer) and incubated for 1 hour in the dark at RT. After a baseline read, compounds were added, and the plate was read for a further 1 hour (SPARK 10 M, Tecan) with 10-min intervals. The final read at 1 hour was used for analysis.

5-HT1A receptor = molecular target: T2, 5-HT1A receptor (Homo sapiens, UniProt P08908); test: PRESTO-TANGO β-arrestin recruitment; assay type: cell-based; conditions: panel screen
T2 construct: TANGO fusion module (own knowledge, Kroeze et al.: C-terminal V2 tail, TEV site and tTA); 1000000068; host or cells: HTLA (HEK293-derived)
T2 sequence (P08908 1-422): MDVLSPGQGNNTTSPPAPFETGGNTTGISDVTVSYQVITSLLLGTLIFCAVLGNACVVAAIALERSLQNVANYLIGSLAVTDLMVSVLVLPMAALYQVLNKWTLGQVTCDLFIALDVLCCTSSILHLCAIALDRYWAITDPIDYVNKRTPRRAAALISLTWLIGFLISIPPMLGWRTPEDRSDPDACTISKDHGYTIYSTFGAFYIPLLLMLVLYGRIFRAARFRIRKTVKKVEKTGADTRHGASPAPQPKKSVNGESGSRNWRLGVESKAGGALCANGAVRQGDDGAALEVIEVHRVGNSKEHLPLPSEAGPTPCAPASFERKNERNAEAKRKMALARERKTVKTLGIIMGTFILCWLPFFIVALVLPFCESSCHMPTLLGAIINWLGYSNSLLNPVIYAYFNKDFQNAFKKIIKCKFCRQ
Protocol: Assessment of receptor activation by compounds at all human aminergic receptors were carried out using a modified version of the PRESTO-TANGO method. […] The plate was spun down, and 5 μl of a 1:25 dilution (in DPBS) of polyethylenimine (PEI) derivative (Transporter 5, Polysciences) was added (1:4 cDNA to PEI ratio) and incubated for 20 min at room temperature (RT). […] Luminescence signal was detected using a plate-reader (SPARK, Tecan) with 100-ms integration time and a 100-ms delay between well reads.

WT and TAAR1-KO mice [1] = test: Pre-pulse inhibition (PPI) behavioral assay; assay type: in vivo; conditions: compound 65 1 mg/kg, risperidone 0.2 mg/kg i.p.
Protocol: Measurements were performed using startle response chambers (San Diego Instruments, San Diego, CA, USA). Each chamber is sound-isolated and contains a Plexiglass animal enclosure attached to a platform and a loudspeaker that can produce both continuous white noise and acoustic pulses of varying intensities. The animal enclosure is large enough for the animal to turn around and make other movements to reduce restraint stress. Mouse startle responses to acoustic stimuli are transformed by a piezoelectric transducer under the platform into an analog signal. The transducers were calibrated before each experiment using a standardization unit (San Diego Instruments, San Diego, CA, USA), and the speakers were calibrated using a Type 2670 Microphone Preamplifier, a Type 4230 Sound Level Calibrator, and a Type 2610 Measuring Amplifier (Brüel & Kjær, Nærum, Denmark). To habituate the mice to the chambers, they were placed in the enclosure for 5 min, with 65-dB background white noise, on three different days before the start of experiments. PPI measurements were then conducted on each mouse on four occasions separated by 96 hours. The first occasion was a mock test session where all mice were injected with vehicle, serving to reduce the effect of novelty on subsequent sessions. The next three sessions were true test sessions with injection of either compound 65, risperidone, or vehicle. The R package agricolae was used to generate a randomized block design, randomizing treatment order across sex, genotype, and test session.
Animals were brought to the testing room for habituation 60 min before the starting of tests. Thirty minutes before PPI measurements, mice were injected with either compound 65 (1 mg/kg), risperidone (0.2 mg/kg), or vehicle intraperitoneally. Each test session started with a 5-min background noise (65-dB white noise) habituation period. The background noise continued throughout the test session. The habituation period was followed by four blocks of trials, with the first and last blocks consisting of five pulse-only trials (40-ms, 120-dB pulse). During block 2, five trial types were presented five times each in a pseudo-randomized order. The trial types included pulse only, no stimulus (NOSTIM), and three different pre-pulse trials in which 20 ms pre-pulses of different intensities (68, 71, or 77 dB) preceded the startle pulse (120 dB) by a 100-ms interval. Block 3 contained the same numbers and types of trials as block 2, but in a different pseudorandom order. […] PPI data are shown as PPI%, which was calculated as [1 − (pre-pulse trials/startle-only trials)] × 100. Mean PPI was calculated by adding the average PPI% for all pre-pulse intensities (3, 6, and 12 dB) and dividing it by the number (i.e., 3) of pre-pulse intensities.

WT and TAAR1-KO mice [2] = test: Open-field test: baseline locomotion and MK-801-induced hyperlocomotion; assay type: in vivo; conditions: compound 65 1 mg/kg, risperidone 0.03 mg/kg
Protocol: To assess the influence of the compound on baseline locomotion and MK-801–induced hyperlocomotion, mice were subjected to open-field testing on four occasions separated by 96 hours. The first occasion was a mock test session where all mice were injected with vehicle only, serving to reduce the effect of novelty on subsequent sessions. The next three sessions were true test sessions with pretreatment of either compound 65, risperidone, or vehicle, followed by MK-801. The R package agricolae was used to generate a randomized block design, randomizing treatment order across sex, genotype, and test session. After injection with either compound 65 (1 mg/kg), risperidone (0.03 mg/kg), or vehicle intraperitoneally, mice were immediately placed in the open field and recorded for 15 min. They were then injected with MK-801 (0.35 mg/kg intraperitoneal) and recorded again for 60 min. The OFT arena measured 46 cm by 46 cm with gray floor and walls. The brightness at the center of each arena was 30 to 50 lux. The arenas were cleaned with 70% ethanol between each animal. Video from a camera mounted in the ceiling was analyzed using EthoVision XT11.5 (Noldus) software.

[3] = Metabolic stability in liver microsomes; conditions: mouse liver microsomes, 1 μM

## CC1=C(c2ccco2)CNCC1 [Compound 65]
hTAAR1
  EC50: 0.398 nM
5-HT1A receptor
  activation of 5-HT1A receptor: did not observe a considerable activation
WT and TAAR1-KO mice [1]; TAAR1-KO mice
  effect on PPI: did not observe any change in PPI
WT and TAAR1-KO mice [1]; WT mice
  effect on PPI: elevated PPI at both 3- and 6-dB pre-pulse levels
WT and TAAR1-KO mice [2]; TAAR1-KO mice
  effect on locomotion: did not exhibit such an effect
WT and TAAR1-KO mice [2]; WT mice, MK-801 0.35 mg/kg
  effect on MK-801–induced hyperlocomotion: significant decrease
WT and TAAR1-KO mice [2]; WT mice, versus vehicle
  effect on baseline locomotion: trend toward decreased locomotion
[3]
  intrinsic clearance CLint: 7 μl/min per mg
